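Cells were grown in 96-well plates and exposed to each compound for 48 hours at five concentrations; endpoints were interpolated linearly between bracketing concentrations, or set to the highest concentration if not reached. Here, GI50 denotes the concentration required for 50% inhibition of growth.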 Active and inactive are the calls of the source. No stated cut-off is given here; in the data, active = GI50 up to about 1.1 µM and inactive = higher.

Assay in all cases: inhibition of tumour cell growth, NCI panel, 48 h
The test system of assay [1] is HCT-15.
Assay [2] concerns Hs-578T.
Assay [3] concerns A498.
For assay [4], the system named is SK-MEL-2.
In assay [5] the test system is NCI/ADR-RES.
Assay [6] deals with EKVX.
Assay [7] deals with MDA-MB-435.
Assay [8] deals with UACC-257.
In assay [9] the test system is NCI-H23.
For assay [10], the system named is NCI-H226.
The test system of assay [11] is SK-OV-3.
In assay [12] the test system is SW-620.
Assay [13] has as its system SN12C.
Assay [14] relates to HOP-62.
Assay [15] relates to COLO 205.
In assay [16] the test system is RPMI-8226.
The test system of assay [17] is SR.
Assay [18] relates to MOLT-4.
Assay [19] relates to CCRF-CEM.

For the compound `NCCNCC(O)CO` (configuration not stated), the GI50 in assay [1] is over 100 µM; in assay [2], > 100 µM (inactive); in [3], > 100 µM (inactive); in assay [4], > 100 µM (inactive); in [5], > 100 µM (inactive); in assay [6], > 100 µM (inactive). Besides, the GI50 in [7], in [8], in [9], in [10], in [11] and in assay [12] was > 100 µM (inactive) in each case. Also, the GI50 in assay [13], in [14], in [15], in assay [16], in assay [17] and in assay [18] was > 100 µM (inactive) in each case.

As to `COC(=O)CCc1ccc2c(c1)CC1(C2)Cc2ccc3c(c2C1)CCC3` (configuration not stated), the GI50 was 59.2 µM in assay [1]; 99.1 µM (inactive) in [2]; > 100 µM (inactive) in [3]; > 100 µM (inactive) in [5]; > 100 µM (inactive) in [6]; 38.1 µM (inactive) in [7]. In addition, the GI50 in assay [8] was > 100 µM (inactive); in assay [9], 50.6 µM (inactive); in [10], > 100 µM (inactive); in assay [11], 30.4 µM (inactive); in assay [12] it was > 100 µM (inactive); in [13], 80 µM (inactive). The GI50 in [14] was > 100 µM (inactive); in assay [15], 80.4 µM (inactive); in [19], 61.7 µM (inactive); in assay [16] it was 31.3 µM (inactive); in assay [17] it was > 100 µM (inactive); in assay [18], 38.5 µM (inactive).

In the case of `Cc1ccc(Nc2cn(COCc3ccccc3)c(=O)[nH]c2=O)cc1`, the GI50 in [1] is over 100 µM; in assay [2], 24.9 µM (inactive); in [3], > 100 µM (inactive); in [5], > 100 µM (inactive); in assay [6], > 100 µM (inactive); in [7], > 100 µM (inactive). Moreover, the GI50 was > 100 µM (inactive) in assay [8]; 25.5 µM (inactive) in assay [9]; > 100 µM (inactive) in assay [10]; > 100 µM (inactive) in assay [12]; > 100 µM (inactive) in assay [13]; 29.4 µM (inactive) in [14]. Also, the GI50 in assay [15], in [19], in assay [16], in assay [17] and in assay [18] was > 100 µM (inactive) throughout.

With `O=C(O)c1ccccc1CC1Cc2ccccc2C1`, the GI50 in assay [1] was over 100 µM; in assay [2], > 100 µM (inactive); in [4] it was > 100 µM (inactive); in assay [5], > 100 µM (inactive); in assay [6], > 100 µM (inactive); in assay [7], > 100 µM (inactive). The GI50 in assay [8], in assay [9], in assay [10], in assay [11], in assay [12] and in assay [13] was > 100 µM (inactive) throughout. Moreover, the GI50 in assay [14], in [15], in assay [19], in assay [16], in assay [17] and in [18] was > 100 µM (inactive) throughout.

With `COc1ccc(-c2c3c(n(C4OC(CO)C(O)C(O)C4O)c(=S)c2C#N)CC(C)(C)CC3=O)cc1` (configuration not stated), the GI50 in assay [1] was over 100 µM; in [2] it was > 100 µM (inactive); in assay [3] it was > 100 µM (inactive); in assay [4], > 100 µM (inactive); in assay [5], > 100 µM (inactive); in [7], > 100 µM (inactive). Also, the GI50 was > 100 µM (inactive) in assay [8]; > 100 µM (inactive) in [9]; 96.6 µM (inactive) in [10]; > 100 µM (inactive) in assay [13]; > 100 µM (inactive) in assay [14]; > 100 µM (inactive) in assay [15]. Moreover, the GI50 is > 100 µM (inactive) in [19], 89.7 µM (inactive) in assay [16], 74.5 µM (inactive) in assay [17] and 79.4 µM (inactive) in assay [18].

On to `C/N=c1/oc2ccccc2cc1C(N)=O`, for which the GI50 was over 100 µM in [1]; 16.9 µM (inactive) in [2]; > 100 µM (inactive) in assay [4]; > 100 µM (inactive) in assay [5]; 30.8 µM (inactive) in [6]; > 100 µM (inactive) in [7]. Further, the GI50 in assay [8], in [9], in assay [10], in [11], in assay [12] and in assay [13] was > 100 µM (inactive) throughout. In addition, the GI50 in assay [14], in assay [15], in assay [19], in assay [16], in assay [17] and in [18] was > 100 µM (inactive) in each case.

On to `COC1/C=C\OC2(C)Oc3c(C)c(O)c4c(O)c(c(/C=N\OCCCc5ccccc5)c(O)c4c3C2=O)NC(=O)/C(C)=C\C=C/C(C)C(O)C(C)C(O)C(C)C(OC(C)=O)C1C` (configuration not stated), for which the GI50 in assay [1] was 3.16 µM; in assay [2] it was 6.31 µM (inactive); in [3], 6.93 µM (inactive); in assay [4], 2.18 µM (inactive); in assay [5] it was 3.66 µM (inactive); in assay [6], 4.52 µM (inactive). For the same compound, the GI50 in [7] was 3.25 µM (inactive); in assay [8], 5.74 µM (inactive); in [9], 3.21 µM (inactive); in assay [10], 2.13 µM (inactive); in [11], 4.42 µM (inactive); in assay [12] it was 4.36 µM (inactive). Also, the GI50 in [13] was 1.81 µM (inactive); in [14], 2.59 µM (inactive); in assay [15], 1.78 µM (inactive); in [19], 3.08 µM (inactive); in assay [17] it was 2.81 µM (inactive); in assay [18], 3.46 µM (inactive).

Turning to `CCOC(=O)C1C/C(C)=C(/C)SCCCS1` (configuration not stated), the GI50 in assay [1] is over 100 µM; in [2] it was > 100 µM (inactive); in assay [3] it was > 100 µM (inactive); in [4] it was > 100 µM (inactive); in [5], > 100 µM (inactive); in assay [6], > 100 µM (inactive). The GI50 in assay [7] is > 100 µM (inactive); in assay [8], > 100 µM (inactive); in assay [9], 80 µM (inactive); in assay [10], > 100 µM (inactive); in [11] it was > 100 µM (inactive); in assay [12], > 100 µM (inactive). In addition, the GI50 in assay [13] is > 100 µM (inactive); in [14], > 100 µM (inactive); in assay [15] it was > 100 µM (inactive); in [16], 58.6 µM (inactive); in assay [17], 65.5 µM (inactive); in assay [18], 38.2 µM (inactive).

With `N#Cc1c(=O)c2ccccc2n2ccccc12`, the GI50 was over 100 µM in assay [1]; > 100 µM (inactive) in assay [2]; > 100 µM (inactive) in assay [3]; 13.4 µM (inactive) in assay [4]; > 100 µM (inactive) in [5]; > 100 µM (inactive) in assay [7]. Further, the GI50 in assay [8] is > 100 µM (inactive); in assay [9] it was > 100 µM (inactive); in [10], 24.9 µM (inactive); in assay [12] it was 79.8 µM (inactive); in assay [13] it was > 100 µM (inactive); in [15] it was > 100 µM (inactive). Besides, the GI50 in assay [19], in assay [16] and in assay [17] was > 100 µM (inactive) each time.

Consider `O=C(NCCCCCCNC(=O)c1cc(-c2ccccc2)nc2ccccc12)c1cc(-c2ccccc2)nc2ccccc12`, for which the GI50 is over 100 µM in [1]; 40.6 µM (inactive) in assay [2]; > 100 µM (inactive) in assay [3]; > 100 µM (inactive) in [5]; > 100 µM (inactive) in [6]; > 100 µM (inactive) in assay [7]. The GI50 in assay [8], in assay [9], in assay [10], in assay [11], in assay [12] and in assay [13] was > 100 µM (inactive) each time. Moreover, the GI50 in [14] is 54.3 µM (inactive); in assay [15], > 100 µM (inactive); in [19], > 100 µM (inactive); in assay [16], > 100 µM (inactive); in assay [17] it was > 100 µM (inactive); in [18], > 100 µM (inactive).

For the compound `CCOC(=O)C1C(=O)C=C(c2cc(C)ccc2O)CC1c1cccc(Br)c1` (configuration not stated), the GI50 in [1] was 3.24 µM; in [2], 14.8 µM (inactive); in [4] it was 18.5 µM (inactive); in assay [5] it was 13.4 µM (inactive); in assay [6] it was 24 µM (inactive); in assay [7] it was 2.39 µM (inactive). The GI50 is 15.7 µM (inactive) in assay [8]; 17.5 µM (inactive) in [9]; 15.7 µM (inactive) in assay [10]; 14.2 µM (inactive) in assay [11]; 25 µM (inactive) in assay [12]; 16.9 µM (inactive) in assay [13]. Further, the GI50 was 46.7 µM (inactive) in assay [14]; 16.2 µM (inactive) in [15]; 19.4 µM (inactive) in [19]; 13.9 µM (inactive) in [16]; 5.13 µM (inactive) in assay [17]; 16 µM (inactive) in [18].

The values above are taken from ChEMBL document CHEMBL1201862, “PubChem BioAssay data set” (2004).
